According to patent US20230027066A1 (Urovant Sciences GmbH, priority 2019, published 2023):

Key:
Format in all cases: in vivo, human
[1] = Phase 3 study (75 mg), adverse events
Method: Study assessments of safety included adverse events, physical examinations, vital signs (and weight), and clinical laboratory tests
An adverse event is any untoward medical occurrence in a patient or clinical investigation patient, temporally associated with the use of a medicinal product, whether or not considered related to the medicinal product.
Adverse Events of Clinical Interest for this study included:
Safety analyses were conducted using the SAF and summarized by treatment group as treated. The treatment-emergent period is defined as the period of time from the first dose date of the double blinded Study Treatment through 28 days after the last dose of Study Treatment, or the date of initiation of another investigational agent or surgical intervention or rollover to the extension study, whichever occurs first. Safety was assessed through summaries of adverse events, the frequency of treatment discontinuations due to adverse events, and clinical laboratory evaluations.

[2] = Phase 3 study (75 mg), post-void residual urine volume (PVR)
Source text: The risk of acute urinary retention or morbidities related to an increase in Post-Void Residual (PVR) is a concern with antimuscarinic therapy that promotes smooth muscle relaxation by inhibiting acetylcholine-induced smooth muscle contraction. If, during contraction, the bladder cannot generate enough pressure to overcome the outlet resistance in the urethra, either because of poor detrusor contractility or profound obstruction (most commonly from BPH), acute urinary retention or incomplete emptying of the bladder may result.
The volume of urine that remains in the bladder after voiding (PVR) is an objective measurement that may serve as a proxy for impaired ability to void.
PVR were performed via ultrasound at the visits indicated in the Schedule of Activities.

[3] = tested on: men and women with overactive bladder; assay: 40-week extension study (52 weeks), efficacy; conditions: for UUI Episodes 75% Responders at Week 52 / UUI Episodes 100% Responders at Week 52 / Urgency Episodes 50% Responders at Week 52: multiple imputation
Source text: All CFB calculations used the parent study Baseline value.

[4] = Males with medical history of BPH
[5] = 40-Week treatment group, Full Analysis Set Extension
[6] = 52-Week treatment group, Full Analysis Set Extension

O=C(Nc1ccc(C[C@@H]2CC[C@H]([C@H](O)c3ccccc3)N2)cc1)[C@@H]1CCc2nccc(=O)n21 [Vibegron, (6S)-N-[4-[[(2S,5R)−5-[(R)-hydroxy(phenyl)methyl]pyrrolidin−2-yl]methyl]phenyl]−4-oxo−7,8-dihydro−6H-pyrrolo[1,2-a]pyrimidine−6-carboxamide]
AE: ALT increase ([1]; 12-week study): 1 (0.2) n (%) | AE: AST increase ([1]; 12-week study): 1 (0.2) n (%) | AE: Atrial fibrillation ([1]; 12-week study): 1 (0.2) n (%) | AE: Bilirubin increased ([1]; 12-week study): 0 n (%) | AE: Blood creatinine increased ([1]; 12-week study): 1 (0.2) n (%) | AE: Blood pressure diastolic increased ([1]; 12-week study): 0 n (%) | AE: Blood pressure increased ([1]; 12-week study): 4 (0.7) n (%) | AE: Cardiac failure congestive ([1]; 12-week study): 1 (0.2%) n (%) | AE: Cerebrovascular accident ([1]; 12-week study): 1 (0.2) n (%) | AE: Chest discomfort ([1]; 12-week study): 4 (0.7) n (%) | AE: Chest pain ([1]; 12-week study): 0 n (%) | AE: Chronic kidney disease ([1]; 12-week study): 1 (0.2) n (%) | AE: Constipation ([1]; 12-week study): 9 (1.7) n (%) | AE: Cystitis ([1]; 12-week study): 1 (0.2) n (%) | AE: Diarrhea ([1]; 12-week study): 12 (2.2) n (%) | AE: Dizziness ([1]; 12-week study): 5 (0.9) n (%) | AE: Drug hypersensitivity ([1]; 12-week study): 2 (0.4) n (%) | AE: Dry mouth ([1]; 12-week study): 9 (1.7) n (%) | AE: Dysuria ([1]; 12-week study): 0 n (%) | AE: Escherichia urinary-tract infection ([1]; 12-week study): 0 n (%) | AE: Fatigue ([1]; 12-week study): 2 (0.4) n (%) | AE: Glomerular filtration rate decreased ([1]; 12-week study): 1 (0.2) n (%) | AE: Headache ([1]; 12-week study): 22 (4.0) n (%) | AE: Hepatic enzyme increased ([1]; 12-week study): 0 n (%) | AE: Hot flush ([1]; 12-week study): 4 (0.7) n (%) | AE: Hyperglycemia ([1]; 12-week study): 3 (0.6) n (%) | AE: Hypertension ([1]; 12-week study): 9 (1.7) n (%) | AE: Hypotension ([1]; 12-week study): 1 (0.2) n (%) | AE: Nasopharyngitis ([1]; 12-week study): 15 (2.8) n (%) | AE: Nausea ([1]; 12-week study): 12 (2.2) n (%) | AE: Pollakiuria ([1]; 12-week study): 0 n (%) | AE: Positional vertigo ([1]; 12-week study): 0 n (%) | AE: Residual urine volume increased ([1]; 12-week study): 4 (0.7) n (%) | AE: Somnolence ([1]; 12-week study): 2 (0.4) n (%) | AE: Syncope ([1]; 12-week study): 0 n (%) | AE: Tachycardia ([1]; 12-week study): 0 n (%) | AE: Transaminases increased ([1]; 12-week study): 1 (0.2) n (%) | AE: Type 2 diabetes mellitus ([1]; 12-week study): 2 (0.4) n (%) | AE: Urinary retention ([1]; 12-week study): 3 (0.6) n (%) | AE: Urinary tract infection ([1]; 12-week study): 27 (5.0) n (%) | AE: Vertigo ([1]; 12-week study): 1 (0.2) n (%) | AE: Back pain ([1]; patients ≥75 years): 2.7% | AE: Diarrhea ([1]; patients ≥75 years): 4.0% | AE: Dyspnea ([1]; patients ≥75 years): 4.0% | AE: Nausea ([1]; patients ≥75 years): 2.7% | AE: Rash ([1]; patients ≥75 years): 2.7% | AE: Somnolence ([1]; patients ≥75 years): 2.7% | AE: Upper respiratory tract infection ([1]; patients ≥75 years): 4.0% | AE: Urinary retention ([1]; patients ≥75 years): 2.7% | AE: Urinary tract infection ([1]; patients ≥75 years): 8.0% | Overall AE rate ([1]; patients ≥75 years): 49.3% | Any AE of clinical interest, % ([1]; safety population): (6.6%) | Patients with at least one treatment emergent serious AEs, % ([1]; safety population): (1.5) % | SAEs considered treatment-related by the investigator, % ([1]; safety population): (0.4) % | SAEs: Hospitalization, % ([1]; safety population): (1.3) % | SAEs: other serious criteria, % ([1]; safety population): (0.4) % | Patients with at least one treatment emergent adverse events, % ([1]; safety population, 12-week study): (38.7) % | Patients with at least one Serious AE ([1]; vibegron 75 mg or tolterodine ER 4 mg once daily, 12 weeks): 1.5% | PVR category at Week 12 <100 mL, patients ([2]; Females): 96.8% | PVR category at Week 12 ≥100 mL to <200 mL, patients ([2]; Females): 3.0% | PVR category at Week 12 ≥200 mL to <350 mL, patients ([2]; Females): 0.2% | PVR category at Week 12 ≥350 mL, patients ([2]; Females): 0 | PVR, Mean Change from Baseline at Week 12 (SD) ([2]; Females): 0.1 (36.19) mL | PVR category at Week 12 <100 mL, patients ([2]; Males): 89.7% | PVR category at Week 12 ≥100 mL to <200 mL, patients ([2]; Males): 7.7% | PVR category at Week 12 ≥200 mL to <350 mL, patients ([2]; Males): 2.6% | PVR category at Week 12 ≥350 mL, patients ([2]; Males): 0 | PVR, Mean Change from Baseline at Week 12 (SD) ([2]; Males): 2.2 (48.45) mL | PVR category at Week 12 <100 mL, patients [2, 4]: 96.6% | PVR category at Week 12 ≥100 mL to <200 mL, patients [2, 4]: 0% | PVR category at Week 12 ≥200 mL to <350 mL, patients [2, 4]: 3.4% | PVR category at Week 12 ≥350 mL, patients [2, 4]: 0 | PVR, Mean Change from Baseline at Week 12 (SD) [2, 4]: −3.4 (42.45) mL | PVR category at Week 12 <100 mL, patients ([2]; all patients): 89.9% | PVR category at Week 12 ≥100 mL to <200 mL, patients ([2]; all patients): 3.5% | PVR category at Week 12 ≥200 mL to <350 mL, patients ([2]; all patients): 0.6% | PVR category at Week 12 ≥350 mL, patients ([2]; all patients): 0 | PVR, Mean Change from Baseline at Week 12 (SD) ([2]; all patients): 0.4 (38.27) mL | Micturitions, Change from Baseline at Week 52, Mean ([3]; 40-Week arm): −3.1 | UUI Episodes, Change from Baseline at Week 52, Mean ([3]; 40-Week arm): −2.3 | UUI Episodes, Week 52 Mean ([3]; 40-Week arm): 1.2 | Urgency Episodes, Change from Baseline at Week 52, Mean ([3]; 40-Week arm): −4.0 | Urgency Episodes, Week 52 Mean ([3]; 40-Week arm): 4.7 | Micturitions, Week 52 Mean ([3]; 40-Week arm, Full Analysis Set Extension): 9.3 | Total urinary incontinence episodes, Change from Baseline Mean at Week 52 [3, 5]: −2.5 | Total urinary incontinence episodes, Week 52 Mean [3, 5]: 1.8 | UUI Episodes 75% Responders at Week 52 ([3]; 40-Week treatment group): 58.7% | UUI Episodes 100% Responders at Week 52 ([3]; 40-Week treatment group): 42.1% | Urgency Episodes 50% Responders at Week 52 ([3]; 40-Week treatment group): 51.4% | Micturitions, Change from Baseline at Week 52, Mean ([3]; 52-Week arm): −2.5 | UUI Episodes, Change from Baseline at Week 52, Mean ([3]; 52-Week arm): −2.2 | UUI Episodes, Week 52 Mean ([3]; 52-Week arm): 1.0 | Urgency Episodes, Change from Baseline at Week 52, Mean ([3]; 52-Week arm): −3.4 | Urgency Episodes, Week 52 Mean ([3]; 52-Week arm): 4.5 | Micturitions, Week 52 Mean ([3]; 52-Week arm, Full Analysis Set Extension): 8.7 | Total urinary incontinence episodes, Change from Baseline Mean at Week 52 [3, 6]: −2.5 | Total urinary incontinence episodes, Week 52 Mean [3, 6]: 1.2 | UUI Episodes 75% Responders at Week 52 ([3]; 52-Week treatment group): 61.0% | UUI Episodes 100% Responders at Week 52 ([3]; 52-Week treatment group): 40.8% | Urgency Episodes 50% Responders at Week 52 ([3]; 52-Week treatment group): 49.4% | UUI Episodes, Change from Baseline LS Mean (SE) at Week 52 ([3]; 52-Weeks arm, Full Analysis Set Extension for Incontinence): −2.2 (0.15) | Micturitions, Change from Baseline LS Mean (SE) at Week 52 ([3]; 52-Weeks arm, mixed model for repeated measures): −2.4 (0.24) | Urgency episodes, Change from Baseline LS Mean (SE) at Week 52 ([3]; 52-Weeks treatment, Full Analysis Set Extension): −3.4 (0.34) | Total urinary incontinence episodes, Change from Baseline LS Mean (SE) at Week 52 ([3]; 52-Weeks treatment, Full Analysis Set Extension for Incontinence): −2.5 (0.17) | % Responders, 50% Reduction in Total Inc at Week 52 ([3]; 52-week treatment, Table 97): 71% | % Responders, 50% Reduction in UE at Week 52 ([3]; 52-week treatment, Table 97): 49% | % Responders, 75% Reduction in UUI at Week 52 ([3]; 52-week treatment, Table 97): 61% | % Responders, 100% Reduction in UUI at Week 52 ([3]; 52-week treatment, Table 97): 41% | Micturitions, Least Squares Means CFB at Week 52 ([3]; 52-week treatment, Table 97): −2.4 | Total Incontinence Episodes, Least Squares Means CFB at Week 52 ([3]; 52-week treatment, Table 97): −2.5 | UUI Episodes, Least Squares Means CFB at Week 52 ([3]; 52-week treatment, Table 97): −2.2 | Urgency Episodes (UE), Least Squares Means CFB at Week 52 ([3]; 52-week treatment, Table 97): −3.4 | Volume Voided, mean change from baseline at Week 52 ([3]; 52-week treatment, Table 97): 26 mL
